Our source for the LC95 and LC50 values is ChEMBL document CHEMBL3046453, “Abdominal color of the Asian citrus psyllid, Diaphorina citri, is associated with susceptibility to various insecticides” (2013).

In brackets after ≈: the same amount, converted by molar mass.

As usually defined, the LC50 is the concentration that kills 50% of the test population.

Type in all cases: functional
Holding throughout (conditions): for LC50: Diaphorina citri, 48 h

Experiment [1] has as its system Diaphorina citri. The experiment can be described thus: Insecticidal activity against blue/green Diaphorina citri in citrus leaf assessed as mortality after 48 hr by leaf-dip petridish bioassay method.
Experiment [2] has as its system Diaphorina citri. Briefly: Insecticidal activity against gray/brown Diaphorina citri in citrus leaf assessed as mortality after 48 hr by leaf-dip petridish bioassay method.
The subject of experiment [3] is Diaphorina citri. Briefly: Insecticidal activity against orange/yellow Diaphorina citri in citrus leaf assessed as mortality after 48 hr by leaf-dip petridish bioassay method.

Regarding `CCOP(=S)(OCC)Oc1nc(Cl)c(Cl)cc1Cl` [CHLORPYRIFOS], the figures for the LC95 in experiment [1], in experiment [2] and in experiment [3] were 12.12 µg/mL (≈ 34.6 µM), 11.62 µg/mL (≈ 33.1 µM) and 2.67 µg/mL (≈ 7.62 µM), respectively. For the same molecule, the LC50 in experiment [1] amounted to 3.93 µg/mL (≈ 11.2 µM); in experiment [2] it was 3.62 µg/mL (≈ 10.3 µM); in experiment [3], 0.92 µg/mL (≈ 2.62 µM).
Consider `CC1(C)C(C(=O)OC(C#N)c2cccc(Oc3ccccc3)c2)C1(C)C` (centres undefined) [FENPROPATHRIN], for which, in experiment [1], the LC95 was 29.21 µg/mL (≈ 83.6 µM) and the LC50 turned out to be 0.85 µg/mL (≈ 2.43 µM).
As for `O=[N+]([O-])/N=C1\NCCN1Cc1ccc(Cl)nc1` [IMIDACLOPRID], the results for the LC95 in experiment [1], in experiment [2] and in experiment [3] were 1.84 µg/mL (≈ 7.2 µM), 1.59 µg/mL (≈ 6.22 µM) and 1.09 µg/mL (≈ 4.26 µM), respectively. Also, the LC50 is 0.4 µg/mL (≈ 1.56 µM) in experiment [1], 0.41 µg/mL (≈ 1.6 µM) in experiment [2] and 0.18 µg/mL (≈ 0.704 µM) in experiment [3].
